# Assay results as given in patent publication US9695155B2, “Herbicidal substituted pyrimidinyloxy benzene compounds” (E. I. DU PONT DE NEMOURS AND COMPANY, priority 2013, dated 2017).
# Tests used:
# [1] = tested on: barnyardgrass; experiment: Test A preemergence; assay type: in vivo, Echinochloa crus-galli; conditions: Echinochloa crus-galli, pre-emergence, 240 h, 0 to 100 scale where 0 is no effect and 100 is complete control
# Outline: (§1)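 Compounds in non-phytotoxic solvent with surfactant applied as soil spray preemergence, or postemergence to plants 2-10 cm at one- to two-leaf stage, in loam/sand. After approximately 10 days in greenhouse, injury rated visually versus untreated controls, 0 (no effect) to 100 (complete control).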
# [2] = tested on: large (Lg) crabgrass; experiment: Test A preemergence; assay type: in vivo, Digitaria sanguinalis; conditions: Digitaria sanguinalis, pre-emergence, 240 h, 0 to 100 scale where 0 is no effect and 100 is complete control
# Outline: as §1
# [3] = tested on: pigweed; experiment: Test A preemergence; assay type: in vivo, Amaranthus retroflexus
# Outline: as §1
# [4] = tested on: corn; experiment: Test A preemergence; assay type: in vivo, Zea mays; conditions: Zea mays, pre-emergence, 240 h, 0 to 100 scale where 0 is no effect and 100 is complete control
# Outline: as §1
# [5] = tested on: large (Lg) crabgrass; experiment: Test A postemergence; assay type: in vivo, Digitaria sanguinalis; conditions: 0 to 100 scale where 0 is no effect and 100 is complete control
# Outline: as §1
# [6] = tested on: rice; experiment: Test B flooded paddy test; assay type: in vivo, Oryza sativa; conditions: Oryza sativa; Flood, 250 g ai/ha; 0 to 100 scale where 0 is no effect and 100 is complete control; read-out: Plant response rating, Rice
# Outline: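 Visual ratings on a 0 to 100 scale, where 100 means complete control, compared treated plants with controls after 13 to 15 days in a greenhouse. Treatment went into paddy water 3 cm deep over the soil, applied to plants at the 2-leaf stage.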
# [7] = tested on: giant foxtail; experiment: Test C preemergence; assay type: in vivo, Setaria faberii; conditions: Setaria faberi, pre-emergence
# Outline: (§2)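 Greenhouse herbicide screen. Pre: seeded loam/sand, sprayed at planting. Post: 1–4 leaf plants (2–18 cm) in peat-based mix. Formulation: solvent mixture + surfactant, non-phytotoxic. Readout: visual % control vs untreated, 13–15 d; dash = not tested.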
# [8] = tested on: yellow nutsedge; experiment: Test C preemergence; assay type: in vivo, Cyperus esculentus; conditions: Cyperus, pre-emergence, preemergence, read-out: Nutsedge, Yellow plant response rating
# Outline: as §2
# [9] = tested on: Italian ryegrass; experiment: Test C postemergence; assay type: in vivo, Lolium multiflorum
# Outline: as §2
# [10] = tested on: large (Lg) crabgrass; experiment: Test C postemergence; assay type: in vivo, Digitaria sanguinalis; conditions: Digitaria sanguinalis, post-emergence
# Outline: as §2
# [11] = tested on: lambsquarters; experiment: Test C postemergence; assay type: in vivo, Chenopodium album
# Outline: as §2
# [12] = tested on: morningglory; experiment: Test C postemergence; assay type: in vivo, Ipomoea coccinea
# Outline: as §2
# [13] = tested on: ragweed; experiment: Test C postemergence; assay type: in vivo, Ambrosia elatior
# Outline: as §2
# [14] = tested on: oilseed rape; experiment: Test C postemergence; assay type: in vivo, Brassica napus
# Outline: as §2
# [15] = tested on: wild oat; experiment: Test C postemergence; assay type: in vivo, Avena fatua
# Outline: as §2
# [16] = 31 g ai/ha, postemergence, visual rating, scale 0 to 100 (0 no effect, 100 complete control), 13 to 15 days
smiles,measurement,setting,value
"FC(F)(F)c1cn(-c2ccccc2Oc2ncc(Cl)cn2)nn1 [Compound 166, 5-chloro-2-[2-[4-(trifluoromethyl)-1H-1,2,3-triazol-1-yl]phenoxy]pyrimidine]",pest or weed control at 125 g/ha,"[1]; 125 g ai/ha, read-out: Plant response rating, Barnyardgrass",90%
same,pest or weed control at 500 g/ha,"[1]; 500 g ai/ha, read-out: Barnyardgrass plant response rating",100%
same,pest or weed control at 125 g/ha,"[2]; 125 g ai/ha, read-out: Plant response rating, Crabgrass, Large",100%
same,pest or weed control at 500 g/ha,"[2]; 500 g ai/ha, read-out: Crabgrass, Large plant response rating",100%
same,Pigweed plant response rating (0 to 100 scale),[3]; 125 g ai/ha,100
same,pest or weed control at 500 g/ha,"[3]; Amaranthus retroflexus, pre-emergence, 240 h, 500 g ai/ha, 0 to 100 scale where 0 is no effect and 100 is complete control, read-out: Pigweed plant response rating",100%
same,"Corn plant response rating (crop injury, 0 = no effect, 100 = complete kill) at 125 g/ha",[4]; 125 g ai/ha,30%
same,plant injury at 500 g/ha,"[4]; 500 g ai/ha, read-out: Corn plant response rating",30%
same,"Crabgrass, Large plant response rating",[5]; 125 g ai/ha,90
same,pest or weed control at 500 g/ha,"[5]; Digitaria sanguinalis, post-emergence, 240 h, 500 g ai/ha, read-out: Plant response rating, Crabgrass, Large",100%
same,plant injury at 250 g/ha,[6],75%
same,pest or weed control at 16 g/ha,"[7]; 16 g ai/ha, preemergence, scale 0 to 100 (0 no effect, 100 complete control), read-out: Foxtail, Giant plant response rating",100%
same,pest or weed control at 62 g/ha,"[7]; 62 g ai/ha, preemergence, scale 0 (no effect) to 100 (complete control), read-out: Foxtail, Giant plant response rating",100%
same,pest or weed control at 125 g/ha,"[7]; 125 g ai/ha, preemergence, scale 0 (no effect) to 100 (complete control), read-out: Foxtail, Giant plant response rating",100%
same,pest or weed control at 31 g/ha,"[7]; Preemergence, 31 g ai/ha, scale 0 to 100, 0 no effect, 100 complete control, read-out: Plant response rating, Foxtail, Giant",100%
same,pest or weed control at 16 g/ha,"[8]; 16 g ai/ha, scale 0 to 100 (0 no effect, 100 complete control)",0%
same,pest or weed control at 62 g/ha,"[8]; 62 g ai/ha, scale 0 (no effect) to 100 (complete control)",35%
same,pest or weed control at 125 g/ha,"[8]; 125 g ai/ha, scale 0 (no effect) to 100 (complete control)",80%
same,"Ryegrass, Italian plant response rating",[9]; [16],5
same,pest or weed control at 16 g/ha,"[9]; Lolium multiflorum, post-emergence, 16 g ai/ha, postemergence, 0 is no effect, 100 is complete control, read-out: Plant response rating (0 to 100), Ryegrass, Italian",0%
same,pest or weed control at 125 g/ha,"[9]; Lolium multiflorum, post-emergence, 125 g ai/ha, postemergence, visual rating, scale 0 to 100 (0 no effect, 100 complete control), read-out: Plant response rating, Ryegrass, Italian",30%
same,pest or weed control at 62 g/ha,"[9]; Lolium multiflorum, post-emergence, Postemergence, 62 g ai/ha, scale 0 to 100 (0 no effect, 100 complete control), read-out: Plant response rating, Ryegrass, Italian",15%
same,pest or weed control at 16 g/ha,"[10]; 16 g ai/ha, postemergence, 0 is no effect, 100 is complete control, read-out: Plant response rating (0 to 100), Crabgrass, Large",5%
same,pest or weed control at 31 g/ha,"[10]; 31 g ai/ha, postemergence, visual rating, scale 0 to 100 (0 no effect, 100 complete control), 13 to 15 days, read-out: Crabgrass, Large plant response rating",5%
same,pest or weed control at 125 g/ha,"[10]; 125 g ai/ha, postemergence, visual rating, scale 0 to 100 (0 no effect, 100 complete control), read-out: Plant response rating, Crabgrass, Large",15%
same,pest or weed control at 62 g/ha,"[10]; Postemergence, 62 g ai/ha, scale 0 to 100 (0 no effect, 100 complete control), read-out: Plant response rating, Crabgrass, Large",10%
same,Lambsquarters plant response rating,[11]; [16],80
same,pest or weed control at 16 g/ha,"[11]; Chenopodium album, post-emergence, 16 g ai/ha, postemergence, 0 is no effect, 100 is complete control, read-out: Plant response rating (0 to 100), Lambsquarters",40%
same,pest or weed control at 125 g/ha,"[11]; Chenopodium album, post-emergence, 125 g ai/ha, postemergence, visual rating, scale 0 to 100 (0 no effect, 100 complete control), read-out: Plant response rating, Lambsquarters",98%
same,pest or weed control at 62 g/ha,"[11]; Chenopodium album, post-emergence, Postemergence, 62 g ai/ha, scale 0 to 100 (0 no effect, 100 complete control), read-out: Plant response rating, Lambsquarters",95%
same,Morningglory plant response rating,[12]; [16],70
same,pest or weed control at 16 g/ha,"[12]; Ipomoea, post-emergence, 16 g ai/ha, postemergence, 0 is no effect, 100 is complete control, read-out: Plant response rating (0 to 100), Morningglory",85%
same,pest or weed control at 125 g/ha,"[12]; Ipomoea, post-emergence, 125 g ai/ha, postemergence, visual rating, scale 0 to 100 (0 no effect, 100 complete control), read-out: Plant response rating, Morningglory",95%
same,pest or weed control at 62 g/ha,"[12]; Ipomoea, post-emergence, Postemergence, 62 g ai/ha, scale 0 to 100 (0 no effect, 100 complete control), read-out: Plant response rating, Morningglory",85%
same,Ragweed plant response rating,[13]; [16],45
same,pest or weed control at 16 g/ha,"[13]; Ambrosia artemisiifolia, post-emergence, 16 g ai/ha, postemergence, 0 is no effect, 100 is complete control, read-out: Plant response rating (0 to 100), Ragweed",35%
same,pest or weed control at 125 g/ha,"[13]; Ambrosia artemisiifolia, post-emergence, 125 g ai/ha, postemergence, visual rating, scale 0 to 100 (0 no effect, 100 complete control), read-out: Plant response rating, Ragweed",80%
same,pest or weed control at 62 g/ha,"[13]; Ambrosia artemisiifolia, post-emergence, Postemergence, 62 g ai/ha, scale 0 to 100 (0 no effect, 100 complete control), read-out: Plant response rating, Ragweed",60%
same,Oilseed Rape plant response rating,[14]; [16],90
same,plant injury at 16 g/ha,"[14]; Brassica napus, post-emergence, 16 g ai/ha, postemergence, 0 is no effect, 100 is complete control, read-out: Plant response rating (0 to 100), Oilseed Rape",60%
same,plant injury at 125 g/ha,"[14]; Brassica napus, post-emergence, 125 g ai/ha, postemergence, visual rating, scale 0 to 100 (0 no effect, 100 complete control), read-out: Plant response rating, Oilseed Rape",98%
same,plant injury at 62 g/ha,"[14]; Brassica napus, post-emergence, Postemergence, 62 g ai/ha, scale 0 to 100 (0 no effect, 100 complete control), read-out: Plant response rating, Oilseed Rape",95%
same,"Oat, Wild plant response rating",[15]; [16],10
same,pest or weed control at 16 g/ha,"[15]; Avena fatua, post-emergence, 16 g ai/ha, postemergence, 0 is no effect, 100 is complete control, read-out: Plant response rating (0 to 100), Oat, Wild",5%
same,pest or weed control at 125 g/ha,"[15]; Avena fatua, post-emergence, 125 g ai/ha, postemergence, visual rating, scale 0 to 100 (0 no effect, 100 complete control), read-out: Plant response rating, Oat, Wild",50%
same,pest or weed control at 62 g/ha,"[15]; Avena fatua, post-emergence, Postemergence, 62 g ai/ha, scale 0 to 100 (0 no effect, 100 complete control), read-out: Plant response rating, Oat, Wild",35%
